Where two headings read alike, the source gives them in different places.
What was measured:
[1] = test system: HTT mRNA; test: Splicing RT-qPCR assay, HTT canonical (CJ) and alternative (AJ) junction mRNA; format: cell-based; conditions: Homo sapiens; for EC50: AC50 = 50% response in AJ mRNA increase
In short: (§1)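 A673/K562; 11-pt 3-fold dil., top 10 uM final, ≤0.25% DMSO; 24 h, 37 °C, 5% CO2. Lysis, then RT-qPCR of CJ/AJ isoforms, ≥duplicate. ΔCt vs housekeeper (GAPDH/GUSB/PPIA), ΔΔCt vs DMSO, RQ = 2^(−ΔΔCt), expressed as % response.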

[2] = test system: MYB mRNA; test: Splicing RT-qPCR assay, MYB canonical (CJ) and alternative (AJ) junction mRNA; format: cell-based; conditions: Homo sapiens; for EC50: AC50 = 50% response in AJ mRNA increase
In short: as §1

[3] = test system: SMN2 mRNA; test: Splicing RT-qPCR gene panel, SMN2 canonical junction (CJ) mRNA; format: cell-based; conditions: Homo sapiens; Table 8; larger gene panel, decrease in CJ mRNA levels
In short: as §1

[4] = test system: Target C mRNA; test: Splicing RT-qPCR gene panel, Target C canonical junction (CJ) mRNA; format: cell-based; conditions: Homo sapiens; Table 8; larger gene panel, decrease in CJ mRNA levels
In short: as §1

[5] = test system: HiBiT-tagged MYB protein; test: HiBiT protein abundance assay, MYB (K562 HiBiT knock-in cells); format: cell-based, human; conditions: 24 hours treatment
In short: (§2)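 Luminescence from the Nano-Glo HiBiT lytic reagent measured tagged protein remaining in knock-in K562 cells after 24 h compound exposure (top dose 10 µM final, 3-fold, 10 points). Responses normalized between parental K562 and DMSO-treated lines were fit by four-parameter logistic to interpolate the 50% concentration.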

[6] = test system: HiBiT-tagged HTT protein; test: HiBiT protein abundance assay, HTT (K562 HiBiT knock-in cells); format: cell-based, human; conditions: 24 hours treatment
In short: as §2

[7] = test system: K562 (human chronic myelogenous leukemia) cells; test: Cell viability, Cell Titer Glo 2.0 assay, K562 cells; format: cell-based; conditions: 72 hours
In short: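 Luminescent Cell Titer Glo 2.0 readout after 72 h exposure (37° C, 5% CO2), medium-only wells as blank. Cells plated 500/well in IMDM with 10% FBS; test compounds diluted from DMSO series 1:100 into medium, 0.1% DMSO final.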

[8] = test system: Target C; test: HiBiT protein abundance assay, Target C (K562 HiBiT knock-in cells); format: cell-based, human; conditions: 24 hours treatment
In short: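 The readout was Nano-Glo HiBiT lytic luminescence after 24 h compound exposure at 37 °C, in 10000 K562 knock-in cells/well. Compounds ran as 10-point, 3-fold series, top final […], ≤0.25% DMSO. Responses were scaled between parental K562 and DMSO-treated controls, and IC50 was interpolated at 50% from four-parameter logistic curves.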

[9] = Table 7, RT-qPCR, A673 or K562 cells, 24 hours treatment
[10] = Table 7, IC50 = 50% response in CJ mRNA decrease, RT-qPCR, A673 or K562 cells, 24 hours treatment, read-out: HTT CJ
[11] = Table 8, larger gene panel, decrease in CJ mRNA levels, read-out: HTT CJ IC50
[12] = Table 7, IC50 = 50% response in CJ mRNA decrease, RT-qPCR, A673 or K562 cells, 24 hours treatment, read-out: MYB CJ
[13] = Table 8, larger gene panel, decrease in CJ mRNA levels, read-out: MYB CJ IC50

Structure (SMILES)	EC50 [1, 9] [nM]	IC50 [1, 10] [nM]	IC50 [1, 11] [nM]	EC50 [2, 9] [nM]	IC50 [2, 12] [nM]	IC50 [2, 13] [nM]	IC50 [3] [nM]	IC50 [4] [nM]	IC50 [5] [nM]	IC50 [6] [nM]	IC50 [7] [nM]	IC50 [8] [nM]
Cn1cc2cc(-c3cc4cn([C@@H]5CCNC[C@H]5O)nc4s3)cc(F)c2n1 [Compound 273]	1000 to 10000	> 10000	> 10000	1000 to 10000	> 10000	> 10000	100 to 1000	> 10000	> 10000	1000 to 10000	1000 to 10000	> 10000
Cn1cc2cc(-c3nc4cn(C5CCNCC5)nc4s3)cc(F)c2n1 [Compound 1100, 7-fluoro-2-methyl-5-[2-(piperidin-4-yl)pyrazolo[4,3-d][1,3]thiazol-5-yl]indazole]	100 to 1000	100 to 1000	100 to 1000	100 to 1000	100 to 1000	100 to 1000	< 100	100 to 1000	100 to 1000	< 100	1000 to 10000	100 to 1000
Cc1cc(-c2nc3cn(C4CCNCC4)nc3s2)cc2cn(C)nc12 [Compound 1101]	100 to 1000	< 100	< 100	100 to 1000	100 to 1000	100 to 1000	< 100	100 to 1000	100 to 1000	< 100	100 to 1000	< 100
COc1c(-c2nc3cn(C4CCNCC4)nc3s2)cc2cn(C)nc2c1C [Compound 1103]	1000 to 10000	1000 to 10000	1000 to 10000	1000 to 10000	1000 to 10000	1000 to 10000	1000 to 10000	1000 to 10000	1000 to 10000	1000 to 10000	1000 to 10000	1000 to 10000
Cc1nc2cc(O)c(-c3nc4cn(C5CCNCC5)nc4s3)cc2o1 [Compound 1104]	100 to 1000	100 to 1000	100 to 1000	1000 to 10000	1000 to 10000	1000 to 10000	< 100	1000 to 10000	1000 to 10000	< 100	1000 to 10000	100 to 1000
Cc1cn2cc(-c3nc4cn(C5CCNCC5)nc4s3)nc(C)c2n1 [Compound 1105, 4-(5-{2,8-dimethylimidazo[1,2-a]pyrazin-6-yl}pyrazolo[4,3-d][1,3]thiazol-2-yl)piperidine]	> 10000	> 10000	> 10000	> 10000	> 10000	> 10000	1000 to 10000	> 10000	1000 to 10000	1000 to 10000	> 10000	> 10000
Cc1cc(-n2cc3nc(C4CCNCC4)sc3n2)cc2cn(C)nc12 [Compound 1106]	1000 to 10000	1000 to 10000	1000 to 10000	1000 to 10000	> 10000	> 10000	1000 to 10000	> 10000	1000 to 10000	1000 to 10000	> 10000	1000 to 10000
Cn1cc2cc(-c3nc4cn(C5CCNCC5)nc4s3)c(O)c(F)c2n1 [Compound 1107]	100 to 1000	100 to 1000	100 to 1000	100 to 1000	100 to 1000	100 to 1000	< 100	100 to 1000	1000 to 10000	100 to 1000	1000 to 10000	100 to 1000
Cc1c(O)c(-c2nc3cn(C4CCNCC4)nc3s2)cc2cn(C)nc12 [Compound 1108, 2,7-dimethyl-5-(2-(piperidin-4-yl)-2H-pyrazolo[4,3-d]thiazol-5-yl)-2H-indazol-6-ol]	< 100	< 100	< 100	< 100	< 100	< 100	< 100	< 100	< 100	1000 to 10000	100 to 1000	1000 to 10000
Cn1cc2cc(-n3cc4nc(C5CCNCC5)sc4n3)cc(F)c2n1 [Compound 1109]	1000 to 10000	1000 to 10000	1000 to 10000	1000 to 10000	> 10000	> 10000	1000 to 10000	> 10000	1000 to 10000	1000 to 10000	> 10000	1000 to 10000
Cn1cc2cc(-c3nc4cn(C5CCNCC5)nc4s3)c(O)cc2n1 [Compound 1110]	100 to 1000	100 to 1000	< 100	1000 to 10000	1000 to 10000	100 to 1000	< 100	100 to 1000	1000 to 10000	100 to 1000	1000 to 10000	1000 to 10000

Reference: patent publication US20250109140A1, “5-[5-(PIPERIDIN-4-YL)THIENO[3,2-C]PYRAZOL-2-YL]INDAZOLE DERIVATIVES AND RELATED COMPOUNDS AS MODULATORS FOR SPLICING NUCLEIC ACIDS AND FOR THE TREATMENT OF PROLIFERATIVE DISEASES” (REMIX THERAPUTICS INC., priority 2022, published 2025)
